This note sets out measurements from patent US6933308B2 (Bristol-Myers Squibb Company, priority 2002, dated 2005).

The experiment deals with KCNQ channels. Put plainly: Thallium flux assay for KCNQ channel openers. Type of experiment: cell-based. As to conditions: HEK-293 cells stably transfected with a KCNQ family member; for Min conc. response: minimal active concentration: lowest concentration giving signal >= 4 SD of negative controls; for EC50: thallium flux, 10 point concentration series. The protocol: Thallium Flux Assay for KCNQ Channel Openers.
The thallium assay is a modification of that published by Weaver and is referenced in its entirety (Weaver, C. D. WO 02/31508, 2002).
Approximately 20,000 cells/well of an HEK-293 cell line stably transfected with one of the members of the KCNQ family were plated into clear-bottom, black-walled, poly-D-lysine coated, 384 well assay plates in 20 μl/well of low chloride plating medium. Low chloride plating medium was composed of the following: sodium gluconate, 109 mM; potassium gluconate, 5.4 mM; hemi-calcium gluconate, 3.6 mM; magnesium sulfate, 0.8 mM; sodium bicarbonate, 26.2 mM; sodium phosphate monobasic, 1.2 mM; glutamine, 2 mM; glucose, 5 mM; 4-(2-hydroxyethyl)-1-piperazineethanesulfonic acid (HEPES) (pH 7.3) 10 mM, MEM vitamin solution (10× concentration of vitamins, Gibco/LifeTechnologies 11120-052) and MEM amino acid solution (1× concentration of amino acids, Gibco/LifeTechnologies 11130-051).
Following overnight incubation in a 5% CO2 incubator at 37° C., the cells in the plates were loaded with 20 μl/well of a dye loading solution containing the commercially available thallium-sensitive fluorescent dye BTC-AM, the acetomethoxy ester of BTC (see U.S. Pat. No. 5,501,980) (2 μM) and pluronic acid F-127 (Molecular Probes P 6867) (0.02% w/v) in chloride free assay buffer. Chloride free assay buffer was composed of the following: sodium gluconate, 140 mM; potassium gluconate, 2.5 mM; hemi-calcium gluconate, 6 mM; hemi-magnesium gluconate, 2 mM; glucose, 5 mM; HEPES (pH 7.3), 10 mM.
Following incubation in the dye loading solution for from 45-90 min at room temperature, the dye loading solution was removed by aspiration and replaced with 40 μl/well of chloride free assay buffer.
Prior to addition to cell plates, test compound and standard compounds were dissolved in DMSO to 3 mM concentration. Compounds were then diluted from the 3 mM stock to 100-fold over the final assay concentration in DMSO. Finally, compounds in DMSO were diluted from 100-fold over the final assay concentration to 5-fold over the final assay concentration in chloride free assay buffer.
Ten μl/well of compounds at 5-fold over the final assay concentration were then added to the cell plates. This represents a 1:5 dilution, yielding the final test concentration. The wells used for test compounds were A1-P20. Wells A21-P22 contained a standard opener and a maximally efficacious concentration (positive control). Wells A23-P24 contained chloride free assay buffer containing 1% DMSO (negative control).
Following addition of test compounds, the plates were loaded onto the Molecular Devices FLIPR. The 488 nm line of the argon laser was used to excite the BTC and the emission filter was a 540(+/−30) nm. Images were collected at 1 Hz. Ten seconds of baseline were collected and then the FLIPR was used to add 13 μl/well of a stimulus buffer composed of 7.5 mM Tl2SO4 in chloride free assay buffer. Images were collected for an additional 60 seconds.
For data analysis, the amplitude of the average of the negative controls was subtracted from all wells. The amplitudes of the test compounds were then compared to the value of four standard deviations of the negative control wells. The lowest concentration of a test compound sufficient to generate a signal amplitude greater than or equal to four standard deviations from the amplitude of the negative controls was defined as the minimal active concentration.
For generating EC50 values, compounds were serially diluted in 1:3 volume increments to produce a 10 point concentration series. EC50 values were calculated by fitting the resulting amplitudes to a single-site logistic equation. EC50 was defined as the concentration of test compound required to yield 50% of the maximal response. Maximal response (Maximal opening) was the largest signal amplitude divided by the negative control amplitude generated by any concentration of a test compound. […]

Where only a bound is given, the exact number is not on record here.

In the case of `CCN(CC)CCc1nc(C(F)(F)F)c(C(=O)N[C@@H](C)c2cccc(-c3cccnc3)c2)s1` [Example 31], the Min conc. response was 0.3 µM and the half-maximal effective concentration (EC50) lay within 1000 to 20000 nM.

`CCN(CC)CCc1nc(C(F)(F)F)c(C(=O)NC(C)c2cccc(N(C)C)c2)s1` (stereo not drawn) [Example 16, 2-[2-(diethylamino)ethyl]-N-[1-[3-(dimethylamino)phenyl]ethyl]-4-(trifluoromethyl)-5-thiazolecarboxamide] came in with a Min conc. response of 0.3 µM and an EC50 of 1000 to 20000 nM.

`C[C@H](NC(=O)c1sc(C(O)CN2CCCC2)nc1C(F)(F)F)c1cccc(N2CCOCC2)c1` (stereo partly drawn) [Example 59, 2-[1-hydroxy-2-(1-pyrrolidinyl)ethyl]-N-[(1S)-1-[3-(4-morpholinyl)phenyl]ethyl]-4-(trifluoromethyl)-5-thiazolecarboxamide] returned a Min conc. response of 30 µM.

`CC(NC(=O)c1sc(CCN2CCCCC2)nc1C(F)(F)F)c1cccc(OC(F)(F)F)c1` (stereo not drawn) [Example 22, 2-[2-(1-piperidinyl)ethyl]-N-[1-[3-(3-trifluoromethoxy)phenyl]ethyl]-4-(trifluoromethyl)-5-thiazolecarboxamide] yielded a Min conc. response of 0.3 µM and an EC50 of 50 to 1000 nM.

`CC(NC(=O)c1sc(CCN2CCCCC2)nc1C(F)(F)F)c1cccc(N(C)C)c1` (stereo not drawn) [Example 23, N-[1-[3-(dimethylamino)phenyl]ethyl]-2-[2-(1-piperidinyl)ethyl]-4-(trifluoromethyl)-5-thiazolecarboxamide] came in with a Min conc. response of 0.3 µM and an EC50 of 1000 to 20000 nM.

With `C[C@H](NC(=O)c1sc(CCN2CCOCC2)nc1C(F)(F)F)c1cccc(N2CCOCC2)c1` [Example 45, 2-[2-(4-morpholinyl)ethyl]-N-[(1S)-1-[3-(4-morpholinyl)phenyl]ethyl]-4-(trifluoromethyl)-5-thiazolecarboxamide], the Min conc. response was 3 µM.

`COCCN(CCOC)CCc1nc(C(F)(F)F)c(C(=O)NC(C)c2cccc(OC(F)(F)F)c2)s1` (stereo not drawn) [Example 38] registered a Min conc. response of 3 µM and a 50% effective concentration (EC50) of 1000 to 20000 nM.

Compound `C[C@H](NC(=O)c1sc(C(O)CN2CCN(C)CC2)nc1C(F)(F)F)c1cccc(-c2cccnc2)c1` (stereo partly drawn) [Example 55, 2-[1-hydroxy-2-(4-methyl-1-piperazinyl)ethyl]-N-[(1S)-1-[3-(3-pyridinyl)phenyl]ethyl]-4-(trifluoromethyl)-5-thiazolecarboxamide] came in with a Min conc. response of 0.3 µM.

In turn, `CC(NC(=O)c1sc(CCN(C)Cc2ccncc2)nc1C(F)(F)F)c1cccc(C(F)(F)F)c1` (stereo not drawn) [Example 17, 2-[2-[(4-pyridylmethyl)methylamino]ethyl]-4-(trifluoromethyl)-N-[1-[3-(trifluoromethyl)phenyl]ethyl]-5-thiazolecarboxamide] yielded a Min conc. response of 3 µM and an EC50 of 1000 to 20000 nM.

As for `CC(NC(=O)c1sc(CCN2CCCC2)nc1C(F)(F)F)c1cccc(C(F)(F)F)c1` (stereo not drawn) [Example 10, 2-[2-(1-pyrrolidinyl)ethyl]-4-(trifluoromethyl)-N-[1-[3-(trifluoromethyl)phenyl]ethyl]-5-thiazolecarboxamide], the Min conc. response was determined as 30 µM and the EC50 was in the range of 1000 to 20000 nM.

As for `CCN(CC)CC(O)c1nc(C(F)(F)F)c(C(=O)N[C@@H](C)c2cccc(N3CCOCC3)c2)s1` (stereo partly drawn) [Example 49, 2-[2-(diethylamino)-1-hydroxyethyl]-N-[(1S)-1-[3-(4-morpholinyl)phenyl]ethyl]-4-(trifluoromethyl)-5-thiazolecarboxamide], the Min conc. response stood at 30 µM.

As to `COCCN(CCOC)CCc1nc(C(F)(F)F)c(C(=O)NC(C)c2cccc(C(F)(F)F)c2)s1` (stereo not drawn) [Example 39], the Min conc. response was found to be 3 µM and the EC50 lay within 1000 to 20000 nM.

In the case of `COCCN(CCOC)CCc1nc(C(F)(F)F)c(C(=O)N[C@@H](C)c2cccc(-c3cccnc3)c2)s1` [Example 40], the Min conc. response was 30 µM and the EC50 lay within 50 to 1000 nM.

The compound `CC(NC(=O)c1sc(CCN(C)Cc2ccco2)nc1C(F)(F)F)c1cccc(-c2cccnc2)c1` (stereo not drawn) [Example 12, 2-[2-[(2-furanylmethyl)methylamino]ethyl]-N-[1-[3-(3-pyridinyl)phenyl]ethyl]-4-(trifluoromethyl)-5-thiazolecarboxamide] yielded a Min conc. response of 3 µM and an EC50 of under 50 nM.

Compound `CC(NC(=O)c1sc(CCNC2CCCC2)nc1C(F)(F)F)c1cccc(OC(F)(F)F)c1` (stereo not drawn) [Example 36, 2-[2-(cyclopentylamino)ethyl]-N-[1-[3-(trifluoromethoxy)phenyl]ethyl]-4-(trifluoromethyl)-5-thiazolecarboxamide] gave a Min conc. response of 30 µM and an EC50 of 1000 to 20000 nM.

In turn, `CCCN(CC1CC1)CC(O)c1nc(C(F)(F)F)c(C(=O)NC(C)c2cccc(C(F)(F)F)c2)s1` (stereo not drawn) [Example 60, 2-[2-[(cyclopropylmethyl)propylamino]-1-hydroxyethyl]-4-(trifluoromethyl)-N-[1-[3-(trifluoromethyl)phenyl]ethyl]-5-thiazolecarboxamide] gave a Min conc. response of 3 µM.

`CC(NC(=O)c1sc(CCN2CCC(O)CC2)nc1C(F)(F)F)c1cccc(C(F)(F)F)c1` (stereo not drawn) [Example 27, 2-[2-(4-hydroxy-1-piperidinyl)ethyl]-4-(trifluoromethyl)-N-[1-[3-(trifluoromethyl)phenyl]ethyl]-5-thiazolecarboxamide]: the Min conc. response came to 30 µM and the EC50 lay in the range of 1000 to 20000 nM.

On to `CC(NC(=O)c1sc(CCN2CCC(O)CC2)nc1C(F)(F)F)c1cccc(OC(F)(F)F)c1` (stereo not drawn) [Example 26, 2-[2-(4-hydroxy-1-piperidinyl)ethyl]-4-(trifluoromethyl)-N-[1-[3-(trifluoromethoxy)phenyl]ethyl]-5-thiazolecarboxamide], for which the Min conc. response amounted to 10 µM and the EC50 was 1000 to 20000 nM.

`CC(NC(=O)c1sc(CCN(C)CCN(C)C)nc1C(F)(F)F)c1cccc(N(C)C)c1` (stereo not drawn) [Example 47, 2-[2-[[2-(dimethylamino)ethyl]methylamino]ethyl]-N-[1-[3-(dimethylamino)phenyl]ethyl]-4-(trifluoromethyl)-5-thiazolecarboxamide] registered a Min conc. response of 0.3 µM.

In turn, `C[C@H](NC(=O)c1sc(CCN2CCCCC2)nc1C(F)(F)F)c1cccc(N2CCOCC2)c1` [Example 25, N-[1-[3-(4-morpholinyl)phenyl]ethyl]-2-[2-(1-piperidinyl)ethyl]-4-(trifluoromethyl)-5-thiazolecarboxamide] came in with a Min conc. response of 3 µM and a concentration for a half-maximal effect (EC50) of 1000 to 20000 nM.

Take `C[C@H](NC(=O)c1sc(CCN2CCCCC2)nc1C(F)(F)F)c1cccc(-c2cccnc2)c1` [Example 32, 2-[2-(1-piperidinyl)ethyl]-N-[1-[3-(3-pyridinyl)phenyl]ethyl]-4-(trifluoromethyl)-5-thiazolecarboxamide]: the Min conc. response stood at 3 µM and the EC50 fell in the range of 1000 to 20000 nM.

`CC(NC(=O)c1sc(C(O)CN2CCCCC2)nc1C(F)(F)F)c1cccc(C(F)(F)F)c1` (stereo not drawn) [Example 56, 2-[1-hydroxy-2-(1-piperidinyl)ethyl]-4-(trifluoromethyl)-N-[1-[3-(trifluoromethyl)phenyl]ethyl]-5-thiazolecarboxamide] registered a Min conc. response of 30 µM.

`C[C@H](NC(=O)c1sc(CCNC2CCCC2)nc1C(F)(F)F)c1cccc(-c2cccnc2)c1` [Example 37] came in with a Min conc. response of 30 µM and an EC50 of 1000 to 20000 nM.

Usually EC50 stands for the concentration giving half of the maximal effect. Low values mean greater potency, high ones weaker potency.
